Assay results: patent US20160082071A1, “METHODS OF TREATING MYELOID LEUKEMIA” (BIOKINE THERAPEUTICS LTD., priority 2013, published 2016)
Like-named read-outs stand apart in the source and are kept apart here.

Columns and labels:
[1] = tested on: human AML xenografts; settings: subcutaneous injections; Beider et al., Exp. Hematol. 2011; cited from earlier work
[2] = tested on: malignant cells of hematopoietic origin including AML; settings: cited from earlier work
[3] = tested on: Normal C57BL/6 female mice; settings: mouse, in vivo
Protocol: (§1) Lyophilized 4F-benzoyl-TN14003 was manufactured by MSD N.V. The compound was dissolved with water for injection (WFI) at a final stock concentration of 25 mg/ml and stored at −20° C. until use. Before injection to the mice, 4F-benzoyl-TN14003 was thawed and diluted with PBS to final concentration of 5 mg/ml. Actual dosing solutions were prepared by diluting the 5 mg/ml stock solution (total dose including salt) in PBS just before the injection. 4F-benzoyl-TN14003 was administered at a constant dose volume of 200 μL.
(§2) Cytarabine (Cytosine arabinoside; ARA-C) was purchased from Hadassah cytotoxica pharmacy (Israel). ARA-C was provided from Hadassah cytotoxica pharmacy at concentration of 100 mg/ml. Actual dose solution (200 mg/Kg) was prepared by diluting the 100 mg/ml stock solution in PBS.
(§3) Normal C57BL/6 female mice, 9-10 week old, about 20 gram in weight, were used. The animals were kept in groups of a maximum of 10 animals in polysulphone cages (425×266×185 mm), fitted with solid bottoms and filled with wood shavings as bedding material. The animals were provided ad libitum a commercial rodent diet (Harlan Teklad™ Ra/Mouse Diet) and allowed free access to autoclaved water, supplied to each cage via polysulphone bottles with stainless steel sipper-tubes. From the first day of ARA-C dosing wet food was placed at the bottom of the cage. Ten animals were randomly allocated per treatment group.
(§4) The treatments groups were as followed (10 animals per treatment group): • Group A: untreated control. • Group B: animals administered with 4FB-TN14003 at a dose of 2.4, 4.8, 9.6 or 12 mg/Kg daily from day 1 to day 7. • Group C: animals administered with ARA-C at a dose of 200 mg/Kg daily from day 3 to 7. • Group D: animals administered with 4FB-TN14003 as in group B (at a dose of 2.4, 4.8, 9.6 or 12 mg/Kg daily from day 1 to day 7) and also with ARA-C as in group C (at a dose of 200 mg/Kg daily from day 3 to 7).
(§5) 4FB-TN14003 was injected SC at a constant dose volume of 200 μL/mouse (based on the latest determined body weight-average of 20 gr), once daily for 7 consecutive days (days 1-7). Control mice were injected with the vehicle (PBS) only under the same regimen.
(§6) ARA-C was diluted in PBS and injected SC at a constant dose of 200 mg/kg and at constant volume of 200 μL/mouse, once daily for 5 consecutive days (days 3-7). In the combination groups (groups 7-10) ARA-C was injected 4 hours following 4FB-TN14003 injection.
(§7) Blood samples were collected on day 12 of the experiment. The mice in each group were subjected to terminal bleeding from the orbital sinus. Blood samples (ca. 400-500 μl) were dispensed into special serum gel separation tubes (BD Microgard™) centrifuged at 13,000 rpm for 8 minutes at RT and saved the supernatant sera. Sera samples (at least 220 μl) were kept at 2-8° C. to complete blood counts (CBC).

[4] = tested on: Normal C57BL/6 female mice; assay: Toxicity assay: complete blood counts in mice treated with 4F-benzoyl-TN14003, ARA-C or both
Protocol: as §1, §2, §3, §4, §5, §6, §7

Row | Compound | growth of human AML xenografts [1] | cytotoxicity toward malignant cells of hematopoietic origin including AML [2] | hematocrit [3] | hemoglobin (HGB) [3] | lymphocyte Abs [3] | platelets [3] | red blood-cells (RBC) [3] | levels of platelets ([4]; ARA-C alone versus ARA-C in combination with 4F-benzoyl-TN14003, FIG. 5) | levels of neutrophil Abs ([4]; ARA-C alone versus ARA-C in combination with 4F-benzoyl-TN14003, FIG. 7) | white blood-cells (WBC) ([4]; compared with untreated control, blood collected day 12 (five days after treatment), ARA-C 200 mg/Kg SC days 3-7, 4F-benzoyl-TN14003 2.4, 4.8, 9.6 or 12 mg/Kg SC days 1-7, FIG. 1) | red blood-cells (RBC) ([4]; compared with untreated control, blood collected day 12, FIG. 2) | hematocrit ([4]; compared with untreated control, blood collected day 12, FIG. 3) | hemoglobin (HGB) ([4]; compared with untreated control, blood collected day 12, FIG. 4) | platelets ([4]; compared with untreated control, blood collected day 12, FIG. 5) | lymphocyte Abs ([4]; compared with untreated control, blood collected day 12, FIG. 6) | neutrophil Abs ([4]; compared with untreated control, blood collected day 12, FIG. 7)
1 | 4F-benzoyl-Arg-Arg-Nal-Cys-Tyr-Cit-Lys-DLys-Pro-Tyr-Arg-Cit-Cys-Arg-NH2 [4F-benzoyl-TN14003] | significantly reduced | CXCR4-dependent preferential cytotoxicity | did not cause a reduction | did not cause a reduction | did not cause a reduction | did not cause a reduction | did not cause a reduction |  |  |  |  |  |  |  |  | 
2 | Nc1ccn([C@@H]2O[C@H](CO)[C@@H](O)[C@@H]2O)c(=O)n1 [ARA-C, Cytarabine] |  |  |  |  |  |  |  | equally reduced levels | equally reduced levels | drastic reduction | drastic reduction | drastic reduction | drastic reduction | drastic reduction | drastic reduction | drastic reduction
